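Grown in 96-well plates, cells were treated for 48 hours with each compound at five concentrations. Insufficient inhibition: endpoint recorded as highest concentration tested. TGI: concentration producing complete growth inhibition.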
Tests used:
Assay in all cases: growth of human tumour cells (NCI), 48 h
[1] = test system: HT29 colon
[2] = test system: A498 renal
[3] = test system: ACHN renal
[4] = test system: UACC-62 melanoma
[5] = test system: HOP-92 NSCLC
[6] = test system: COLO 205 colon
[7] = test system: U251 CNS
[8] = test system: SNB-75 CNS
[9] = test system: CCRF-CEM leukemia
[10] = test system: KM12 colon
[11] = test system: MALME-3M melanoma
[12] = test system: MOLT-4 leukemia
[13] = test system: UO-31 renal
[14] = test system: MCF7 breast
[15] = test system: RPMI-8226 leukemia
[16] = test system: PC-3 prostate
[17] = test system: HS 578T breast
[18] = test system: K-562 leukemia
[19] = test system: SF-268 CNS
[20] = test system: HL-60(TB) leukemia

SMILES | TGI [1] [µM] | TGI [2] [µM] | TGI [3] [µM] | TGI [4] [µM] | TGI [5] [µM] | TGI [6] [µM] | TGI [7] [µM] | TGI [8] [µM] | TGI [9] [µM] | TGI [10] [µM] | TGI [11] [µM] | TGI [12] [µM] | TGI [13] [µM] | TGI [14] [µM] | TGI [15] [µM] | TGI [16] [µM] | TGI [17] [µM] | TGI [18] [µM] | TGI [19] [µM] | TGI [20] [µM]
N#CCC1C2CC3C(C2=O)C13 (stereo not given) | > 100 | > 100 | > 100 | > 100 | > 100 | > 100 | > 100 | > 100 | > 100 | > 100 | > 100 | > 100 | > 100 | > 100 | > 100 | > 100 | > 100 | > 100 | > 100 | –
CCCn1c(=O)c2nn3c(=O)n(CCC)c(=O)c3nn2c1=O | > 100 | – | > 100 | > 100 | > 100 | > 100 | > 100 | > 100 | > 100 | > 100 | > 100 | > 100 | > 100 | > 100 | > 100 | > 100 | > 100 | > 100 | > 100 | > 100
CCN(CC)C(=S)N/N=C/c1cc(OC)ccc1O | > 100 | 18 | > 100 | 21.6 | – | > 100 | > 100 | > 100 | 5.71 | > 100 | > 100 | 28.6 | 6.12 | 9.84 | – | > 100 | > 100 | > 100 | 11.3 | 7.44
c1ccc(-c2cc(-c3ccncc3)cc(-c3ccncc3)n2)cc1 | > 100 | – | > 100 | > 100 | – | > 100 | > 100 | 99.1 | > 100 | > 100 | > 100 | > 100 | > 100 | > 100 | > 100 | > 100 | > 100 | > 100 | > 100 | > 100
COC(=O)[C@]1(C)CCC[C@]2(C)[C@@H](CCC(=O)C(C)C)[C@]3(C=O)O[C@@H]3C[C@H]21 | > 100 | – | 57.3 | > 100 | > 100 | > 100 | > 100 | 63.9 | > 100 | > 100 | > 100 | > 100 | 48.4 | > 100 | – | > 100 | > 100 | > 100 | > 100 | > 100
c1ccc2nn(C3CCCO3)nc2c1 (stereo not given) | > 100 | > 100 | – | > 100 | – | > 100 | > 100 | > 100 | > 100 | – | > 100 | > 100 | – | > 100 | – | > 100 | > 100 | > 100 | > 100 | > 100
CN1CC=C(c2cccn2C)CC1 | > 100 | – | > 100 | > 100 | – | > 100 | > 100 | > 100 | > 100 | > 100 | > 100 | > 100 | > 100 | > 100 | > 100 | > 100 | > 100 | > 100 | > 100 | > 100
CC(=O)N=c1ccc2nc(N)nn(O)c-2c1 | > 100 | > 100 | > 100 | > 100 | – | > 100 | > 100 | > 100 | > 100 | > 100 | – | > 100 | > 100 | > 100 | > 100 | > 100 | > 100 | > 100 | > 100 | > 100
CC(C)COP(C)(=O)C(N)(C(F)(F)F)C(F)(F)F (stereo not given) | > 100 | – | > 100 | > 100 | > 100 | > 100 | > 100 | > 100 | > 100 | > 100 | > 100 | > 100 | > 100 | > 100 | > 100 | > 100 | > 100 | > 100 | > 100 | > 100
CN1C(C)(C)CC(=O)C(Br)C1(C)C (stereo not given) | > 100 | – | > 100 | > 100 | > 100 | > 100 | > 100 | > 100 | > 100 | > 100 | > 100 | > 100 | > 100 | > 100 | > 100 | > 100 | > 100 | > 100 | > 100 | > 100
Cc1c2ccccc2c(C2C3C(=O)N(c4cccc5ccccc45)C(=O)C3ON2Cc2ccc(CC(N)=O)cc2)c2ccccc12 (stereo not given) | 27 | > 50 | > 50 | 47.3 | > 50 | 14.6 | > 50 | 43.5 | > 50 | > 50 | > 50 | 25.7 | > 50 | > 50 | – | > 50 | > 50 | > 50 | > 50 | > 50
c1ccc2cc(CNCCCCNCCCNCc3ccc4ccccc4c3)ccc2c1 | 0.538 | 4.42 | 2.92 | 3.52 | 3.05 | – | 1.25 | 2.95 | > 100 | 0.97 | 3.28 | – | 2.83 | 3.06 | 0.712 | 3.3 | 1.26 | – | 2.83 | –
CCOC(=O)C1(C#N)C(C#N)(C#N)C1(C#N)C#N | > 100 | > 100 | > 100 | > 100 | > 100 | > 100 | > 100 | – | > 100 | > 100 | > 100 | > 100 | > 100 | > 100 | > 100 | > 100 | > 100 | > 100 | > 100 | > 100
